A short description of one data set: pKa of flubendazole. Type of data set: physicochemical.
The nature of the next data set: LogP of flubendazole. Type of data set: physicochemical. The source says:
(§1) Table 1 Physicochemical Properties of Flubendazole (FLU) | column: Value

Data set [1] can be described thus: Apparent permeability (Papp). The format is in vitro ADME. The settings on record: not told, AB.
Excerpt: as §1

A short description of data set [2]: Solubility in ambient conditions. The format is physicochemical.
A further data set deals with Onchocerca volvulus. Set-up: method as in PMID 6130195. The settings on record: after 12 months of follow-up; 5 weekly injections; cited from earlier work.

≈ marks a conversion by molar mass, not a printed value. Where two headings read alike, the source gives them in different places.

These results are taken from PMC4988473, “Evaluation of Three Amorphous Drug Delivery Technologies to Improve the Oral Absorption of Flubendazole” (Journal of Pharmaceutical Sciences, 2016).

The pKa is the negative logarithm of the acid dissociation constant. As a reminder, the logP is the decadic logarithm of the partition coefficient of the neutral form, usually between octanol and water. Lower therefore signals a more hydrophilic compound. By Papp is commonly meant a coefficient for how fast a substance crosses the barrier. Broadly, the solubility is the dissolved amount per volume that the medium holds. Turning to `COC(=O)Nc1nc2cc(C(=O)c3ccc(F)cc3)ccc2[nH]1` [FLU, flubendazole], the pKa in the data set “pKa of flubendazole” amounted to 9.6; in “pKa of flubendazole” (carbamate group) it was 3.6. For the same molecule, in the data set “LogP of flubendazole”, the lipophilicity (logP) was found to be 3. Further, the Papp at 10 μM in data set [1] amounted to 33.8 ×10⁻⁶ cm/s. The solubility worked out at 180 µg/mL (≈ 0.575 mM) in data set [2] (acetone, organic solvent or mixture, read-out: Solubility in acetone); 140 µg/mL (≈ 0.447 mM) in data set [2] (dichloromethane, organic solvent or mixture, read-out: Solubility in dichloromethane); 340000 µg/mL (≈ 1090 mM) in data set [2] (formic acid, organic solvent or mixture, read-out: Solubility in formic acid); 110 µg/mL (≈ 0.351 mM) in data set [2] (methanol, organic solvent or mixture, read-out: Solubility in methanol); 5 µg/mL (≈ 0.016 mM) in data set [2] (water, read-out: Solubility in water). The “Activity against Onchocerca volvulus compared with diethylcarbamazine” value in the data set with Onchocerca volvulus is given as “superior activity”.
